Laboratory results: patent US6531453B1, “NKT cell activators containing α-glycosylceramides” (Kirin Beera Kabushiki Kaisha, priority 1997, dated 2003)

What was measured:
MRL lpr/lpr mice = assay: Suppression of lymph node swelling in MRL lpr/lpr mice; assay type: in vivo, mouse; settings: 100 μg/kg i.p. twice a week from the age of 11 weeks
Description: Ten animals per group of female MRL lpr/lpr mice (Sakamoto, A. Clin. Immunol., 28, 1558 (1966)), were used for the following experiment. During the observation of 21 MRL mice purchased at the age of 6 weeks, swelling of the axillary lymph nodes was recognized in one mouse at the age of 10 weeks. Accordingly, the other 20 mice were randomly divided into 2 groups. A vehicle (a physiological saline solution containing 0.025% Polysolvate 20) or KRN 7000 (100 μg/kg) was intraperitoneally administered twice a week (on Tuesday and Friday) to the abovementioned 2 groups of animals starting from the age of 11 weeks. Axillary and inguinal lymph nodes were examined twice a week to observe the progress of lymph node swelling with time. The lymph nodes were scored into 4 grades, i.e., −(0), +(1), ++(2) and +++(3) as a function of size. The total scores of both right and left sides of the axillary lymph node (A) or inguinal lymph node (B) were expressed as lymph node swelling indexes as shown in FIG. 3.

Vα24+ NKT cells = assay: Stimulation of Vα24+ NKT cell proliferation, autologous mixed leukocyte reaction with treated antigen-presenting cells; assay type: cell-based, human; settings: antigen-presenting cells treated with 100 ng/ml, FIG. 9
Description: Peripheral blood mononuclear cells of a normal human were cultured for 4 days in an AIM medium supplemented with 10% FCS with the addition of GM-CSF (400 U/ml), IL-4 (200 U/ml) and KRN 7000 (100 ng/ml) to prepare antigen-presenting cells.
An autologous mixed leukocyte reaction (MLR) was performed using these antigen-presenting cells as stimulator cells and autologous peripheral blood mononuclear cells as responder cells. After incubation for 10 days, IL-2 (5 U/ml) was added, incubation was continued for another 4 days, and the cells were harvested. Next, CD4, CD8 double negative cells were recovered from these harvested cells and subjected to the phenotype analysis. The phenotypic analysis was expressed by fluorescence intensity of labeled antibodies against cells having various phenotypes.
The cells were cultured using IL-2 (5 U/ml) to stimulate the proliferation of Vα24^+ NKT cells, which were used as responder cells in the following autologous mixed leukocyte reaction. Autologous peripheral blood mononuclear cells were cultured for 4 days with the addition of GM-CSF +IL-4 and 100 ng/ml of KRN 7000, AGL-583 (β-galactosylceramide, β-GalCer) or 0.1% DMSO (vehicle) to prepare antigen-presenting cells. An autologous mixed leukocyte reaction was carried out using these antigen-presenting cells as stimulator cells. […]

[1] = system: C57BL/6 mice with MOG-induced EAE; assay: Suppression of the onset of experimental autoimmune encephalomyelitis (EAE); assay type: in vivo, mouse; settings: 20 μg/kg i.p. on days 1, 5, 8, 12 and 15, FIG. 6B
Description: […]. Mice were immunized by subcutaneously injecting this emulsion on day 0 and day 7. Further, 500 ng of pertussis toxin were intraperitoneally administered on day 1 and […] induce experimental autoimmune encephalomyelitis (EAE) in mice. The animals were divided into 2 groups, i.e., a group to which 20 μg/kg of KRN 7000 were intraperitoneally administered on days 1, 5, 8, 12 and 15 and a group to which a vehicle (0.5%, Polysolvate 20) was administered in a similar manner. The level of EAE symptoms was observed every day.

NOD/ShiJic (NOD) mice = assay: Suppression of spontaneous diabetes onset in NOD mice; assay type: in vivo, mouse; settings: 100 μg/kg i.p. twice a week from 7 weeks of age; control 80%, FIG. 7
Description: Ten animals per group of NOD/ShiJic (NOD) mice (6-week-old, females) (Japan Clea, Inc.) were used for the following experiment. […] The animals were divided into two groups, i.e., one group to which 100 μg/kg of KRN 7000 were intraperitoneally administered twice a week starting from 7-weeks of age, and an untreated control group. The presence and absence of diabetic symptoms was examined every week. The blood glucose level was measured using a glucometer (Miles Sankyo), and mice showing the value of more than 200 mg/dL twice consecutively were diagnosed to be diabetic.

mice = assay: Acute toxicity test by a single administration; assay type: in vivo; settings: intravenous, 10 mg/kg
From the text: (§1) The compound of Example 1 was intravenously administered to mice.

[2] = Acute toxicity test by a single administration; assay type: in vivo; settings: mouse, in vivo, 10 mg/kg; intravenous, single administration, mice
From the text: as §1

[3] = system: spleen cells of RAG-1KO/Vα14tg/Vβ8.2tg mice (NKT cells); assay: Stimulation of NKT cell proliferation, [3H]thymidine incorporation in spleen cells; assay type: cell-based, mouse; settings: 2 days incubation
Description: Stimulation of NKT cell proliferation by compounds having an α-glycosylceramide structure was studied using spleen cells of RAG-1KO/Vα14tg/Vβ8.2tg mice shown in Pharmacological Test Example 1.
Spleen cells were prepared from the spleen of RAG-1KO/Vα14tg/Vβ8.2tg mice by conventional methods. These spleen cells were suspended at 2×10^6 cells/ml in an RPMI 1640 medium supplemented with 10% FCS, and 100 μl each of the suspension were plated into wells of 96-well round-bottomed plates. Ten different kinds of compounds having an α-glycosylceramide structure shown in FIG. 12 were added to the wells of the plates at a final concentration of 1, 10 or 100 ng/ml, and the plates were incubated for 2 days. Sixteen hours after the addition of [^3H] thymidine (0.5 μCi/well), the cells were harvested. The amount of [^3H] thymidine incorporated into the cells was measured by a liquid scintillation counter.

[4] = system: 4% DSS-induced mouse colitis (CDF1 mice); assay: Suppression of 4% DSS-induced mouse colitis; assay type: in vivo; settings: KRN 7000 100 μg/kg i.p. days 1, 5, 9, IL-12 1 μg/mouse i.p. days 1, 3, 5, 7, 9
Description: Ten animals per group of CDF1 mice (6 weeks of age, females) (Japan SLC Inc.) were used for the following experiment. Day 0 was defined as the day when a 4% DSS solution (4% (w/v) dextran sodium sulfate (DSS) dissolved in water) was first provided as drinking water. The animals were divided into 3 groups, i.e., a group to which 100 μg/kg of KRN 7000 were intraperitoneally administered on days 1, 5, and 9, a group to which 1 μg/mouse of IL-12 was intraperitoneally administered on days 1, 3, 5, 7 and 9, and an untreated (control) group. Body weight was measured and survival or death of the animals were observed daily. Changes in body weight and survival rate are shown in FIG. 5A and 5B, respectively.

SMILES: CCCCCCCCCCCCCCCCCCCCCCCCCC(=O)N[C@@H](CO[C@H]1O[C@H](CO)[C@H](O)[C@H](O)[C@H]1O)[C@H](O)[C@H](O)CCCCCCCCCCCCCC [KRN 7000, (2S,3S,4R)-1-(α-D-galactopyranosyloxy)-2-hexacosanoylamino-3,4-octadecanediol]
- swelling in the axillary lymph nodes with aging (MRL lpr/lpr mice; FIG. 3A): clearly suppressed
- swelling in the inguinal lymph nodes with aging (MRL lpr/lpr mice; FIG. 3B): clearly suppressed
- effect of treated antigen presenting cells on Vα24+ NKT cell proliferation ([3H]thymidine uptake) (Vα24+ NKT cells): marked stimulative effect
- mice that died of EAE ([1]; 10 mice, vehicle: 80% died): 2
- mice showing the EAE onset ([1]; vehicle: all mice): 4 out of 10
- mice that became diabetic at the age of 35 weeks (NOD/ShiJic (NOD) mice): none
- toxicity symptoms (mice): no particular symptom
- LD50 [2]: > 10 mg/kg
- [3H] Thymidine incorporation (cpm) ([3]; 1 ng/ml, vehicle 2090): 40064 cpm
- [3H] Thymidine incorporation (cpm) ([3]; 10 ng/ml, vehicle 2056): 74669 cpm
- [3H] Thymidine incorporation (cpm) ([3]; 100 ng/ml, vehicle 2014): 102543 cpm
- time of weight loss as compared with the control group ([4]; FIG. 5A): at a later period
- survival period as compared with the control group ([4]; FIG. 5B): significantly longer
